Assay results taken from patent US6339045B1, “N-(unsubstituted or substituted)-4-substituted-6-(unsubstituted or substituted)phenoxy-2-pyridinecarboxamides or thiocarboxamides, processes for producing the same, and herbicides” (Kureha Kagaku Kogyo Kabushiki Kaisha, priority 1995, dated 2002).

Key:
Assay in all cases: Herbicidal effect by foliage and soil treatment
Format in all cases: in vivo
Details in all cases: 10 g ai/10a, evaluated after 14 days
[1] = system: common chickweed (Stellaria media)
Description: (§1) Experiment for Determination of Herbicidal Effect by Foliate and Soil Treatment Seeds of redroot pigweed (Amaranthus retroflexus), common blackjack (Bidens pilosa), kediock (Sinapis arvensis), common chickweed (Stellaria media), sicklepod (Cassia obtusifolia), black nightshade (Solanum nigrum), velvetleaf (Abutilon theophrasti), field bindweed (Convolvulus arvensis), wild chamomile (Matricaria chamomilla), cleavers (Galium aparine) and […] (Veronica hederaefolia), were uniformly sowed over a horticultural granular soil (produced by KUREHA CHEMICAL INDUSTRY, CO., LTD.; the same soil was used hereinafter) filled in a planter. The planter was placed in a greenhouse (maintained at 19 to 25° C.) to sprout these plants. Two seedlings of each sprouted plant were transplanted to a 10 cm-diameter pot filled with the horticultural granular soil and cultivated in the greenhouse (maintained at 19 to 25° C.) until reaching a cotyledonal to bifoliate period suited to the foliage and soil treatment. […] Next, additional amounts of Tween 20 and water were added to the obtained solution or suspension to produce a test solution. The plants prepared in the above (1) were placed within a frame having a predetermined inside area, and uniformly sprayed with the test solution using a sprayer such that the amount of each compound applied was controlled to a predetermined level. The plants sprayed with the test solution were placed again in the greenhouse (maintained at 19 to 25° C.) and cultivated therein. After 14 days, the degree of growth of each plant cultivated in the treated region was compared with that of plant cultivated in non-treated region, and evaluated according to the following ratings. The herbicidal activity of each test compound was represented by these ratings

[2] = system: velvetleaf (Abutilon theophrasti)
Description: as §1

[3] = system: redroot pigweed (Amaranthus retroflexus)
Description: as §1

[4] = system: wild chamomile (Matricaria chamomilla)
Description: as §1

[5] = system: black nightshade (Solanum nigrum)
Description: as §1

[6] = system: common blackjack (Bidens pilosa)
Description: as §1

[7] = system: kediock (Sinapis arvensis)
Description: as §1

[8] = system: cleavers (Galium aparine)
Description: as §1

[9] = system: sicklepod (Cassia obtusifolia)
Description: as §1

[10] = system: ivyleafspeedwell (Veronica hederaefolia)
Description: as §1

[11] = system: field bindweed (Convolvulus arvensis)
Description: as §1

| Compound | herbicidal activity rating, SM (Stellaria media) [1] | herbicidal activity rating, AT (Abutilon theophrasti) [2] | herbicidal activity rating, AR (Amaranthus retroflexus) [3] | herbicidal activity rating, MC (Matricaria chamomilla) [4] | herbicidal activity rating, SN (Solanum nigrum) [5] | herbicidal activity rating, BP (Bidens pilosa) [6] | herbicidal activity rating, SA (Sinapis arvensis) [7] | herbicidal activity rating, GA (Galium aparine) [8] | herbicidal activity rating, CO (Cassia obtusifolia) [9] | herbicidal activity rating, VH (Veronica hederaefolia) [10] | herbicidal activity rating, CA (Convolvulus arvensis) [11] |
| --- | --- | --- | --- | --- | --- | --- | --- | --- | --- | --- | --- |
| COc1cc(Oc2cccc(C(F)(F)F)c2)nc(C(=O)NC2CCC2)c1 [Compound I-49] | 5 (percentage of weeds killed was not less than 80%) | 5 (percentage of weeds killed was not less than 80%) | 5 (percentage of weeds killed was not less than 80%) | 5 (percentage of weeds killed was not less than 80%) | 5 (percentage of weeds killed was not less than 80%) | 5 (percentage of weeds killed was not less than 80%) | 5 (percentage of weeds killed was not less than 80%) | 5 (percentage of weeds killed was not less than 80%) | 5 (percentage of weeds killed was not less than 80%) | 5 (percentage of weeds killed was not less than 80%) | 5 (percentage of weeds killed was not less than 80%) |
| COc1cc(Oc2cccc(C(F)(F)F)c2)nc(C(=O)Nc2ccc(F)cc2)c1 [Compound I-11] | 4 (percentage of weeds killed was not less than 60% and less than 80%) | 3 (percentage of weeds killed was not less than 40% and less than 60%) | 5 (percentage of weeds killed was not less than 80%) | 4 (percentage of weeds killed was not less than 60% and less than 80%) | 5 (percentage of weeds killed was not less than 80%) | 5 (percentage of weeds killed was not less than 80%) | 5 (percentage of weeds killed was not less than 80%) | 5 (percentage of weeds killed was not less than 80%) | 5 (percentage of weeds killed was not less than 80%) | 5 (percentage of weeds killed was not less than 80%) | 4 (percentage of weeds killed was not less than 60% and less than 80%) |
| COc1cc(Oc2cccc(C(F)(F)F)c2)nc(C(=O)NCC(F)(F)C(F)(F)C(F)(F)F)c1 [Compound I-80] | 5 (percentage of weeds killed was not less than 80%) | 5 (percentage of weeds killed was not less than 80%) | 5 (percentage of weeds killed was not less than 80%) | 5 (percentage of weeds killed was not less than 80%) | 5 (percentage of weeds killed was not less than 80%) | 5 (percentage of weeds killed was not less than 80%) | 5 (percentage of weeds killed was not less than 80%) | 5 (percentage of weeds killed was not less than 80%) | 5 (percentage of weeds killed was not less than 80%) | 5 (percentage of weeds killed was not less than 80%) | 5 (percentage of weeds killed was not less than 80%) |
| COc1cc(Oc2cccc(C(F)(F)F)c2)nc(C(=O)NC(C)C)c1 [Compound I-37, N-(i-propyl)-4-methoxy-6-{3-(trifluoromethyl)phenoxy}-2-pyridine carboxamide] | 5 (percentage of weeds killed was not less than 80%) | 4 (percentage of weeds killed was not less than 60% and less than 80%) | 5 (percentage of weeds killed was not less than 80%) | 5 (percentage of weeds killed was not less than 80%) | 5 (percentage of weeds killed was not less than 80%) | 5 (percentage of weeds killed was not less than 80%) | 5 (percentage of weeds killed was not less than 80%) | 5 (percentage of weeds killed was not less than 80%) | 5 (percentage of weeds killed was not less than 80%) | 5 (percentage of weeds killed was not less than 80%) | 5 (percentage of weeds killed was not less than 80%) |
| COc1cc(Oc2cccc(C(F)(F)F)c2)nc(C(=O)NCS(C)(=O)=O)c1 [Compound I-127] | 5 (percentage of weeds killed was not less than 80%) | 5 (percentage of weeds killed was not less than 80%) | 5 (percentage of weeds killed was not less than 80%) | 4 (percentage of weeds killed was not less than 60% and less than 80%) | 5 (percentage of weeds killed was not less than 80%) | 5 (percentage of weeds killed was not less than 80%) | 5 (percentage of weeds killed was not less than 80%) | 5 (percentage of weeds killed was not less than 80%) | 5 (percentage of weeds killed was not less than 80%) | 5 (percentage of weeds killed was not less than 80%) | 5 (percentage of weeds killed was not less than 80%) |
| C=CCNC(=O)c1cc(OC)cc(Oc2cccc(C(F)(F)F)c2)n1 [Compound I-42] | 5 (percentage of weeds killed was not less than 80%) | 4 (percentage of weeds killed was not less than 60% and less than 80%) | 5 (percentage of weeds killed was not less than 80%) | 4 (percentage of weeds killed was not less than 60% and less than 80%) | 5 (percentage of weeds killed was not less than 80%) | 3 (percentage of weeds killed was not less than 40% and less than 60%) | 5 (percentage of weeds killed was not less than 80%) | 5 (percentage of weeds killed was not less than 80%) | 5 (percentage of weeds killed was not less than 80%) | 5 (percentage of weeds killed was not less than 80%) | 4 (percentage of weeds killed was not less than 60% and less than 80%) |
| COc1cc(Oc2cccc(C(F)(F)F)c2)nc(C(=O)NCCCl)c1 [Compound I-35] | 5 (percentage of weeds killed was not less than 80%) | 5 (percentage of weeds killed was not less than 80%) | 5 (percentage of weeds killed was not less than 80%) | 5 (percentage of weeds killed was not less than 80%) | 5 (percentage of weeds killed was not less than 80%) | 5 (percentage of weeds killed was not less than 80%) | 5 (percentage of weeds killed was not less than 80%) | 5 (percentage of weeds killed was not less than 80%) | 5 (percentage of weeds killed was not less than 80%) | 5 (percentage of weeds killed was not less than 80%) | 5 (percentage of weeds killed was not less than 80%) |
